Experimental data as given in patent US11208412B2 (DAEGU-GYEONGBUK MEDICAL INNOVATION FOUNDATION, priority 2017, dated 2021).

Legend:
Test in all cases: Kinase selectivity, DiscoverX scanMAX Kinase assay panel (% control)
Format in all cases: binding
[1] = target: T1, kinases of the scanMAX Kinase assay panel (Homo sapiens, UniProt Q16816); conditions: PHKG1; 1 uM
T1 construct: purchased DiscoverX Co. (contract measurement) scanMAX Kinase assay panel
In short: (§1)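 Compounds were tested at 1 uM (in DMSO) against each panel kinase. % control was calculated as (compound − positive control)/(negative control − positive control)×100, where the positive control gives 0% and DMSO gives 100%. Activity toward a kinase was called at % control <35%.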

[2] = target: T2, kinases of the scanMAX Kinase assay panel (Homo sapiens, UniProt Q96PY6); conditions: NEK1; 1 uM
T2 construct: purchased DiscoverX Co. (contract measurement) scanMAX Kinase assay panel
T2 sequence (Q96PY6 1-1258): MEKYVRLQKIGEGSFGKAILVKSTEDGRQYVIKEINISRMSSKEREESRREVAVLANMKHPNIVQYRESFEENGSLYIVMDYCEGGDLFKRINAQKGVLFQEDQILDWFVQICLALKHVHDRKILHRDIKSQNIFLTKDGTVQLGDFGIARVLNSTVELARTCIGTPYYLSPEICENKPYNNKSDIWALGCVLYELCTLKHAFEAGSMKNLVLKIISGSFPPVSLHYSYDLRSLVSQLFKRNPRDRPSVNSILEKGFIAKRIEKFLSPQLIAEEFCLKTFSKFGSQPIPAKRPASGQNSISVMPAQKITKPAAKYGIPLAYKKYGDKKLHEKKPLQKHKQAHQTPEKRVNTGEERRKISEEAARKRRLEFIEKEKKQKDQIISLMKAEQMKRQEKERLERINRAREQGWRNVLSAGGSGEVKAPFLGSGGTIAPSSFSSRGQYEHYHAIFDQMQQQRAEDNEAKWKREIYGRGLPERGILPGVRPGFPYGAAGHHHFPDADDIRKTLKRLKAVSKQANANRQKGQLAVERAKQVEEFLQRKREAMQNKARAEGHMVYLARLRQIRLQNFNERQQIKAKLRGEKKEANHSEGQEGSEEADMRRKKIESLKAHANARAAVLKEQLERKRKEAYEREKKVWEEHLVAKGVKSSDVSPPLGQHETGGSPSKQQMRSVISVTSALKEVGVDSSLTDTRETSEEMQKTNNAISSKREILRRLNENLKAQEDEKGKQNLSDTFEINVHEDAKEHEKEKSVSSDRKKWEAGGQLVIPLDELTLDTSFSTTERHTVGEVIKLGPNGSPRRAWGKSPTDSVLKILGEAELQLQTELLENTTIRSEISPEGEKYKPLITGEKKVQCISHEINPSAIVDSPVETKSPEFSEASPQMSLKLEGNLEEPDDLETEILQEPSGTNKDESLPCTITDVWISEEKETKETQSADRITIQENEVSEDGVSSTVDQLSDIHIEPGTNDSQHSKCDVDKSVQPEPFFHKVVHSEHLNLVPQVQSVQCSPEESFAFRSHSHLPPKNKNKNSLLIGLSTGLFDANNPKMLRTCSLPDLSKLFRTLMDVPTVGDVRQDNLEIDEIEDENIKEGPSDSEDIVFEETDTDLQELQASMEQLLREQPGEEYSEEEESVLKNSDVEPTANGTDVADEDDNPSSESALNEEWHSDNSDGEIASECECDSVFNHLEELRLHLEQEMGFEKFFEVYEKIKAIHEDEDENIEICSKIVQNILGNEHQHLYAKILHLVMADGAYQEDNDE
In short: as §1

[3] = target: T3, kinases of the scanMAX Kinase assay panel (Homo sapiens, UniProt Q13627); conditions: DYRK1A; 1 uM
T3 construct: purchased DiscoverX Co. (contract measurement) scanMAX Kinase assay panel
In short: as §1

[4] = target: T4, kinases of the scanMAX Kinase assay panel (Homo sapiens, UniProt Q9UEE5); conditions: DRAK1; 1 uM
T4 construct: purchased DiscoverX Co. (contract measurement) scanMAX Kinase assay panel
T4 sequence (Q9UEE5 1-414): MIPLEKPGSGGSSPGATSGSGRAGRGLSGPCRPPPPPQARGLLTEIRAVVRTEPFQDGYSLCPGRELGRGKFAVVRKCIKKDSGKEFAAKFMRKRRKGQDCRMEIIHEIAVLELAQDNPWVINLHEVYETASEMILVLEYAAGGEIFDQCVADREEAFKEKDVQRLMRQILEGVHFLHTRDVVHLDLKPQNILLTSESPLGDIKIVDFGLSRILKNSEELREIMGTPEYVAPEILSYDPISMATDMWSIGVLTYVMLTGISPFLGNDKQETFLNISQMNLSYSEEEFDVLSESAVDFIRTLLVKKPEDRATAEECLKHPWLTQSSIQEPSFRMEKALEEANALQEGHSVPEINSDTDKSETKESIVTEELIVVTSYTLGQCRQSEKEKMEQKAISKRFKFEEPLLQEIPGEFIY
In short: as §1

[5] = target: T5, kinases of the scanMAX Kinase assay panel (Homo sapiens, UniProt P17612); conditions: PKAC-alpha; 1 uM
T5 construct: purchased DiscoverX Co. (contract measurement) scanMAX Kinase assay panel
In short: as §1

[6] = target: T6, kinases of the scanMAX Kinase assay panel (Homo sapiens, UniProt Q13131); conditions: AMPK-alpha1; 1 uM
T6 construct: purchased DiscoverX Co. (contract measurement) scanMAX Kinase assay panel
T6 sequence (Q13131 whole entry): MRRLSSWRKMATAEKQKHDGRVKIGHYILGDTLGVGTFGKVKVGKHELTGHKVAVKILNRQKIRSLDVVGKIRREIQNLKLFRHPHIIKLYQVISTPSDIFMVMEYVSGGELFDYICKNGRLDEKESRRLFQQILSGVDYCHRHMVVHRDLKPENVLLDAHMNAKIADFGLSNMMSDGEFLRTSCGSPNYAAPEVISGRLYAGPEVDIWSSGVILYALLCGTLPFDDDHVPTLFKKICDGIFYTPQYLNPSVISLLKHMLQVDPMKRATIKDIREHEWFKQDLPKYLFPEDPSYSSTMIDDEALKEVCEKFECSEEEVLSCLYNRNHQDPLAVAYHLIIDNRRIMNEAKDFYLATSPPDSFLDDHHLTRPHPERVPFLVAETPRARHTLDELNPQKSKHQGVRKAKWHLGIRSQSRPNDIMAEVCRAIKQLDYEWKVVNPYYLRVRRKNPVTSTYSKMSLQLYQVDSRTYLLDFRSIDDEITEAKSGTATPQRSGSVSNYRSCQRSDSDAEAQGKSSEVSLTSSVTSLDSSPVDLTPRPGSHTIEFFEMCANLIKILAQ
In short: as §1

[7] = target: T7, kinases of the scanMAX Kinase assay panel (Homo sapiens, UniProt Q8IY84); conditions: NIM1; 1 uM
T7 construct: purchased DiscoverX Co. (contract measurement) scanMAX Kinase assay panel
T7 sequence (Q8IY84 whole entry): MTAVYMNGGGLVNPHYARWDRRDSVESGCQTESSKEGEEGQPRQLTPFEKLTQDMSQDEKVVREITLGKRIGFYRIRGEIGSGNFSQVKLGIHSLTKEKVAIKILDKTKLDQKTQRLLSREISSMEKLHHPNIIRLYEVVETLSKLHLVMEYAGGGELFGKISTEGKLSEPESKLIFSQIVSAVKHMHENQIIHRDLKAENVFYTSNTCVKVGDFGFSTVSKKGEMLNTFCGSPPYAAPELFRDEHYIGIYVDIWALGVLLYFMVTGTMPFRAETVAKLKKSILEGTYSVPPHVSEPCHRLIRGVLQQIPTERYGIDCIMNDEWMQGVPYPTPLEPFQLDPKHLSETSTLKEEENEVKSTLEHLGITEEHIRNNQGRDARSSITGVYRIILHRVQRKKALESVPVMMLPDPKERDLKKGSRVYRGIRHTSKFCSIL
In short: as §1

[8] = target: T8, kinases of the scanMAX Kinase assay panel (Homo sapiens, UniProt Q9Y6E0); conditions: MST3; 1 uM
T8 construct: purchased DiscoverX Co. (contract measurement) scanMAX Kinase assay panel
T8 sequence (Q9Y6E0 whole entry): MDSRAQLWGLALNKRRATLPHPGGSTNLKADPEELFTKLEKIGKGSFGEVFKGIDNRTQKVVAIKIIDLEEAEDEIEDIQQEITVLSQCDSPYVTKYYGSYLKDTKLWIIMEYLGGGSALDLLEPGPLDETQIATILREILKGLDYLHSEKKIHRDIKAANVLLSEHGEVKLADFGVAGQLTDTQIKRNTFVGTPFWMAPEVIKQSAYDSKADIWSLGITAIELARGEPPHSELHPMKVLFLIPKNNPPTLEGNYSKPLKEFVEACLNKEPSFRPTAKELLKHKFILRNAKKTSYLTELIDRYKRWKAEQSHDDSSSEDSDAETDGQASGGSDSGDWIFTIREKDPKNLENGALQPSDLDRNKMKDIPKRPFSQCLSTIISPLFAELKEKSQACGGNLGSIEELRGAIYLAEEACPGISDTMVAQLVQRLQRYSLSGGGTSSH
In short: as §1

T1 sequence (Q16816 whole entry): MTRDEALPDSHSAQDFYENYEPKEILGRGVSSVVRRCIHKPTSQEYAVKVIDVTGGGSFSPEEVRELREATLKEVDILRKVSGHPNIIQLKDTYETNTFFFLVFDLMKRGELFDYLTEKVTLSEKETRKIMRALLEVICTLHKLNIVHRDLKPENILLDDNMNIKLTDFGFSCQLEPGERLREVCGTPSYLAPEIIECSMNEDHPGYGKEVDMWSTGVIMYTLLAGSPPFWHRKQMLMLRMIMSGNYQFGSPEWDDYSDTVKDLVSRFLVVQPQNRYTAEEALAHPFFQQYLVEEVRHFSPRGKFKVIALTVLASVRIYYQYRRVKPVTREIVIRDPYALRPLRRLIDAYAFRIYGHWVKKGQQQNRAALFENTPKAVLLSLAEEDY

Structure (SMILES) | remaining binding at 1 µM [1] [%] | remaining binding at 1 µM [2] [%] | remaining binding at 1 µM [3] [%] | remaining binding at 1 µM [4] [%] | remaining binding at 1 µM [5] [%] | remaining binding at 1 µM [6] [%] | remaining binding at 1 µM [7] [%] | remaining binding at 1 µM [8] [%]
CC1(Nc2nc(Nc3cnn([C@H]4CCN(C5COC5)C[C@@H]4F)c3Cl)nc3[nH]cc(C#N)c23)CC1 [Example 52, 2-((5-chloro-1-((3S,4S)-3-fluoro-1-(oxetane-3-yl)piperidine-4-yl)-1H-pyrazole-4-yl)amino)((1-methylcyclopropyl)amino)-7H-pyrrolo[2,3-d]pyrimidine-5-carbonitrile] | 11 | 80 | 0.15 | 0.3 | 100 | 4.3 | 100 | 25
CNc1nc(Nc2ccc(C(=O)N3CCOCC3)cc2OC)nc2[nH]cc(C#N)c12 [Example 1, 2-((2-methoxy-4-(morpholine-4-carbonyl)phenyl)amino)-4-(methylamino)-7H-pyrrolo[2,3-d]pyrimidine-5-carbonitrile] | 13 | 94 | 4.1 | 37 | 100 | 87 | 77 | 86
CCNc1nc(Nc2ccc(C(=O)N3CCC(N4CCOCC4)CC3)cc2OC)nc2[nH]cc(C(F)(F)F)c12 [Example 104, (4-((4-(ethylamino)-5-(trifluoromethyl)-7H-pyrrolo[2,3-d]pyrimidine-2-yl)amino)-3-methoxyphenyl)(4-morpholinopiperidine-1-yl)methanone] | 1 | 93 | 0.05 | 49 | 100 | 100 | 100 | 84
